In the supplement of paper PMC11061612:

Legend:
[1] = compound: C1CN(CCC1(C(=O)N[C@@H](CCO)C2=CC=C(C=C2)Cl)N)C3=NC=NC4=C3C=CN4 [Capivasertib]; details: max 10 µM
Summary of the method: (§1)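 After 24 hours at 37°C and 5% CO2 in 1536-well plates holding 7.5 μl of DMEM/F12 or RPMI with 10% FBS, cancer cell lines were dosed for 72 hours, with final DMSO typically 0.2%. Viability came from CellTiter-Glo 2.0 luminescence, scaled between the means of blank wells and DMSO wells. A non-linear mixed effects model fitted a two-parameter logistic curve to each dose response to give the single-agent IC50.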

[2] = compound: C=CCn1c(=O)c2cnc(Nc3ccc(N4CCN(C)CC4)cc3)nc2n1-c1cccc(C(C)(C)O)n1 [AZD1775]; details: max 3 µM
Summary of the method: as §1

[3] = compound: CC(=O)Nc1cccc(-n2c(=O)n(C3CC3)c(=O)c3c(Nc4ccc(I)cc4F)n(C)c(=O)c(C)c32)c1 [Trametinib]; details: max 1 µM
Summary of the method: as §1

[4] = compound: CC(=O)c1c(C)c2cnc(Nc3ccc(N4CCNCC4)cn3)nc2n(C2CCCC2)c1=O [Palbociclib]; details: max 10 µM
Summary of the method: as §1

[5] = compound: CC(C)n1c(=O)n(C)c2cnc3cc(F)c(-c4ccc(OCCCN5CCCCC5)nc4)cc3c21 [AZD1390]; details: max 0.3 µM
Summary of the method: as §1

[6] = compound: CC1(C)CCC(CN2CCN(c3ccc(C(=O)NS(=O)(=O)c4ccc(NCC5CCOCC5)c([N+](=O)[O-])c4)c(Oc4cnc5[nH]ccc5c4)c3)CC2)=C(c2ccc(Cl)cc2)C1 [Venetoclax]; details: max 1 µM
Summary of the method: as §1

[7] = compound: CC1=C(C(=CC=C1)Cl)NC(=O)C2=CN=C(S2)NC3=CC(=NC(=N3)C)N4CCN(CC4)CCO [Dasatinib]; details: max 2 µM
Summary of the method: as §1

[8] = compound: CC1=CN2[C@@H](C1)C=NC3=CC(=C(C=C3C2=O)OC)OCCCCCOC4=C(C=C5C(=C4)N=C[C@@H]6CC(=CN6C5=O)C)OC [SG3199]; details: max 0.001 µM
Summary of the method: as §1

[9] = compound: CCN(CCO)CCCOc1ccc2c(Nc3cc(CC(=O)Nc4cccc(F)c4)[nH]n3)ncnc2c1 [AZD2811]; details: max 1 µM
Summary of the method: as §1

[10] = compound: CCc1c2c(nc3ccc(O)cc13)-c1cc3c(c(=O)n1C2)COC(=O)[C@]3(O)CC [SN-38]; details: max 0.3 µM
Summary of the method: as §1

[11] = compound: CN(C)CCCOc1ccc(-c2ccc3ncc4c(c3c2)n(C2CCOCC2)c(=O)n4C)cn1 [AZD0156]; details: max 3 µM
Summary of the method: as §1

[12] = compound: CN(CC[C@H](CSC1=CC=CC=C1)NC2=C(C=C(C=C2)S(=O)(=O)NC(=O)C3=CC=C(C=C3)N4CCC(CC4)[C@H](C5=CC=CC=C5C6=CC=C(C=C6)Cl)O)S(=O)(=O)C(F)(F)F)CCO [AZD4320]; details: max 1 µM
Summary of the method: as §1

[13] = compound: COc1cc(Nc2ncc3c(n2)-c2ccc(Cl)cc2C(c2c(F)cccc2OC)=NC3)ccc1C(=O)O [Alisertib]; details: max 10 µM
Summary of the method: as §1

[14] = compound: COc1cc2ncnc(Nc3ccc(F)c(Cl)c3)c2cc1OCCCN1CCOCC1 [Gefitinib]; details: max 10 µM
Summary of the method: as §1

[15] = compound: COc1cccc(OCCCN)c1-c1cc(Nc2cnc(C#N)cn2)n[nH]1 [Prexasertib]; details: max 1 µM
Summary of the method: as §1

[16] = compound: COc1cccc2c1C(=O)c1c(O)c3c(c(O)c1C2=O)C[C@@](O)(C(=O)CO)C[C@@H]3O[C@H]1C[C@H](N)[C@H](O)[C@H](C)O1 [Doxorubicin]; details: max 1 µM
Summary of the method: as §1

[17] = compound: COc1nnc2ccc(N3CCC(c4ccc(OCCN5CCN(C)C(=O)[C@H]5C)cc4)CC3)nn12 [AZD5153]; details: max 1 µM
Summary of the method: as §1

[18] = compound: CS(=O)(=O)CCNCc1ccc(-c2ccc3ncnc(Nc4ccc(OCc5cccc(F)c5)c(Cl)c4)c3c2)o1 [Lapatinib]; details: max 10 µM
Summary of the method: as §1

[19] = compound: C[C@@H](Nc1cc(F)cc(F)c1)c1cc(C(=O)N(C)C)cc2c(=O)cc(N3CCOCC3)oc12 [AZD8186]; details: max 3 µM
Summary of the method: as §1

[20] = compound: C[C@@H](Oc1cc(-c2cnn(C3CCNCC3)c2)cnc1N)c1c(Cl)ccc(F)c1Cl [Crizotinib]; details: max 10 µM
Summary of the method: as §1

[21] = compound: C[C@@H](c1ccc2nccn2c1)n1nnc2ncc(-c3cnn(C)c3)nc21 [Savolitinib]; details: max 1 µM
Summary of the method: as §1

[22] = compound: C[C@@H]1COCCN1C2=NC(=NC(=C2)C3(CC3)[S@](=N)(=O)C)C4=C5C=CNC5=NC=C4 [AZD6738]; details: max 10 µM
Summary of the method: as §1

[23] = compound: Cc1c2c(nn1C)CSCc1cc(n(C)n1)CSc1cc(c3ccccc3c1)OCCCc1c(C(=O)O)n(C)c3c-2c(Cl)ccc13 [AZD5991]; details: max 1 µM
Summary of the method: as §1

[24] = compound: Cc1cc2ncnn2cc1Nc1ncc2c(n1)n(C1CCOCC1)c(=O)n2C [AZD7648]; details: max 10 µM
Summary of the method: as §1

[25] = compound: Cc1nc(-c2cn3c(n2)-c2ccc(-c4cnn(C(C)(C)C(N)=O)c4)cc2OCC3)n(C(C)C)n1 [Taselisib]; details: max 10 µM
Summary of the method: as §1

[26] = compound: Cn1cnc2c(F)c(Nc3ccc(Br)cc3Cl)c(C(=O)NOCCO)cc21 [Selumetinib]; details: max 10 µM
Summary of the method: as §1

[27] = compound: NC1(c2ccc(-c3nc4ccn5c(=O)[nH]nc5c4cc3-c3ccccc3)cc2)CCC1 [MK-2206]; details: max 10 µM
Summary of the method: as §1

[28] = compound: O=C(c1cc(Cc2n[nH]c(=O)c3ccccc23)ccc1F)N1CCN(C(=O)C2CC2)CC1 [Olaparib]; details: max 10 µM
Summary of the method: as §1

| Cell Line | IC50, cell viability 72 h [1] | IC50, cell viability 72 h [2] | IC50, cell viability 72 h [3] | IC50, cell viability 72 h [4] | IC50, cell viability 72 h [5] | IC50, cell viability 72 h [6] | IC50, cell viability 72 h [7] | IC50, cell viability 72 h [8] | IC50, cell viability 72 h [9] | IC50, cell viability 72 h [10] | IC50, cell viability 72 h [11] | IC50, cell viability 72 h [12] | IC50, cell viability 72 h [13] | IC50, cell viability 72 h [14] | IC50, cell viability 72 h [15] | IC50, cell viability 72 h [16] | IC50, cell viability 72 h [17] | IC50, cell viability 72 h [18] | IC50, cell viability 72 h [19] | IC50, cell viability 72 h [20] | IC50, cell viability 72 h [21] | IC50, cell viability 72 h [22] | IC50, cell viability 72 h [23] | IC50, cell viability 72 h [24] | IC50, cell viability 72 h [25] | IC50, cell viability 72 h [26] | IC50, cell viability 72 h [27] | IC50, cell viability 72 h [28] |
| --- | --- | --- | --- | --- | --- | --- | --- | --- | --- | --- | --- | --- | --- | --- | --- | --- | --- | --- | --- | --- | --- | --- | --- | --- | --- | --- | --- | --- |
| NCI-H596 (Other Solid Carcinomas) | > 10 µM | 1.45 µM | > 1 µM | > 10 µM | > 0.3 µM | > 1 µM | > 2 µM | > 0.001 µM | > 1 µM | > 0.3 µM | > 3 µM | > 1 µM | > 10 µM | > 10 µM | 0.866 µM | > 1 µM | 0.301 µM | > 10 µM | > 3 µM | > 10 µM | > 1 µM | > 10 µM | > 1 µM | > 10 µM | 4.95 µM | > 10 µM | > 10 µM | > 10 µM |
| NCI-H1876 (Small Cell Lung Carcinoma) | > 10 µM | 0.33 µM | > 1 µM | > 10 µM | > 0.3 µM | > 1 µM | > 2 µM | > 0.001 µM | 0.149 µM | 0.00103 µM | > 3 µM | 0.176 µM | 0.265 µM | > 10 µM | 0.0292 µM | 0.221 µM | > 1 µM | > 10 µM | > 3 µM | 5.91 µM | > 1 µM | 4.71 µM | > 1 µM | > 10 µM | 3.9 µM | > 10 µM | > 10 µM | 4.44 µM |
| OAW-28 (Ovarian Carcinoma) | > 10 µM | > 3 µM | > 1 µM | > 10 µM | > 0.3 µM | > 1 µM | > 2 µM | > 0.001 µM | > 1 µM | 0.0114 µM | > 3 µM | 0.176 µM | > 10 µM | > 10 µM | 0.72 µM | > 1 µM | > 1 µM | > 10 µM | > 3 µM | > 10 µM | > 1 µM | > 10 µM | > 1 µM | > 10 µM | 6.13 µM | > 10 µM | > 10 µM | > 10 µM |
| P32-ISH (Burkitt's Lymphoma) | 8.02 µM | 0.218 µM | > 1 µM | 6.15 µM | > 0.3 µM | > 1 µM | > 2 µM | > 0.001 µM | 0.077 µM | 0.00182 µM | > 3 µM | > 1 µM | 0.02 µM | > 10 µM | 0.00537 µM | 0.303 µM | 0.136 µM | 6.9 µM | > 3 µM | 2.27 µM | > 1 µM | 2.6 µM | 0.0501 µM | > 10 µM | 8.18 µM | > 10 µM |  | > 10 µM |
| PA-TU-8988T (Pancreatic Carcinoma) | > 10 µM | 1.29 µM | > 1 µM | > 10 µM | > 0.3 µM | > 1 µM | 0.664 µM | > 0.001 µM | > 1 µM | 0.185 µM | > 3 µM | > 1 µM | > 10 µM | > 10 µM | > 1 µM | 0.94 µM | 0.193 µM | > 10 µM | > 3 µM | > 10 µM | > 1 µM | > 10 µM | > 1 µM | > 10 µM | 6.15 µM | > 10 µM |  | > 10 µM |
| PL4 (Pancreatic Carcinoma) | > 10 µM | 1.36 µM | 0.106 µM | > 10 µM | > 0.3 µM | > 1 µM | 0.634 µM | > 0.001 µM | > 1 µM | 0.0435 µM | > 3 µM | > 1 µM | 8.07 µM | > 10 µM | 0.117 µM | > 1 µM | 0.969 µM | > 10 µM | > 3 µM | > 10 µM | > 1 µM | 6.41 µM | > 1 µM | > 10 µM | 2.26 µM | > 10 µM |  | > 10 µM |
| Raji (Burkitt's Lymphoma) | > 10 µM | 0.472 µM | > 1 µM | > 10 µM | > 0.3 µM | > 1 µM | > 2 µM | > 0.001 µM | > 1 µM | 0.0043 µM | > 3 µM | > 1 µM | > 10 µM | > 10 µM | 0.0187 µM | 0.114 µM | 0.371 µM | > 10 µM | > 3 µM | > 10 µM | > 1 µM | 3.81 µM | 0.506 µM | > 10 µM | > 10 µM | > 10 µM |  | > 10 µM |
